The results in this text go back to patent publication US10233182B2, “Substituted spirocyclic inhibitors of autotaxin” (X-Rx, Inc., priority 2014, dated 2019).

Structures are written as SMILES. Structures can show the parent of a compound that is named as a salt.

This test deals with Autotaxin (Homo sapiens (Human), UniProt Q13822). Description: Autotaxin LPC Cascade Assay. Conditions: Autotaxin 5 nM, LPC 100 μM, choline oxidase/HRP/Ampliflu Red fluorescence read-out, 2% DMSO, RT; read-out: IC50 ATX Activity. The class given is biochemical. The method, boiled down:
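Choline liberated from LPC by autotaxin during 1 h, after a 10-min RT compound preincubation, was converted through choline oxidase/HRP to a fluorescent Ampliflu Red product.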
What is called IC50 is the midpoint of a concentration-inhibition curve. For `CC(C)[C@@H](NC(=O)c1cc(C(F)(F)F)ccc1F)C(=O)N1CCC2(CC1)C(=O)N(C)C(=O)N2C` [Example 122, (R)—N-(1-(1,3-Dimethyl-2,4-dioxo-1,3,8-triazaspiro[4.5]decan-8-yl)-3-methyl-1-oxobutan-2-yl)-2-fluoro-5-(trifluoromethyl)benzamide], the IC50 is no less than 1000 nM.
Take `CCN1C(=O)N(C)C(=O)C12CCN(C(=O)[C@H](NC(=O)c1cc(C(F)(F)F)ccc1F)C(C)C)CC2` [Example 123, (R)—N-(1-(1-Ethyl-3-methyl-2,4-dioxo-1,3,8-triazaspiro[4.5]decan-8-yl)-3-methyl-1-oxobutan-2-yl)-2-fluoro-5-(trifluoromethyl)benzamide]: the IC50 was no less than 1000 nM.
Turning to `CC(C)CCN1C(=O)N(C)C(=O)C12CCN(C(=O)[C@H](NC(=O)c1cc(C(F)(F)F)ccc1F)C(C)C)CC2` [Example 124, (R)-2-Fluoro-N-(1-(1-isopentyl-3-methyl-2,4-dioxo-1,3,8-triazaspiro[4.5]decan-8-yl)-3-methyl-1-oxobutan-2-yl)-5-(trifluoromethyl)benzamide], the IC50 was less than 500 nM.
The result for `CC(C)[C@@H](NC(=O)c1cc(C(F)(F)F)ccc1F)C(=O)N1CCC2(CC1)C(=O)N(C)C(=O)N2C1CCCC1` [Example 125, (R)—N-(1-(1-Cyclopentyl-3-methyl-2,4-dioxo-1,3,8-triazaspiro[4.5]decan-8-yl)-3-methyl-1-oxobutan-2-yl)-2-fluoro-5-(trifluoromethyl)benzamide] reads less than 500 nM; that for `CC(C)[C@@H](NC(=O)c1cc(C(F)(F)F)ccc1F)C(=O)N1CCC2(CC1)NC(=O)N(C)C2=O` [Example 126, (R)-2-Fluoro-N-(3-methyl-1-(3-methyl-2,4-dioxo-1,3,8-triazaspiro[4.5]decan-8-yl)-1-oxobutan-2-yl)-5-(trifluoromethyl)benzamide], no less than 1000 nM; that for `COC(=O)Nc1ccc(N2C(=O)N(C)C(=O)C23CCN(C(=O)[C@H](NC(=O)c2cc(C(F)(F)F)ccc2F)C(C)C)CC3)cc1` [Example 127, (R)-Methyl-4-(8-(2-(2-fluoro-5-(trifluoromethyl)benzamido)-3-methylbutanoyl)-3-methyl-2,4-dioxo-1,3,8-triazaspiro[4.5]decan-1-yl)phenylcarbamate], 500 to 1000 nM.
The result for `CC(C)[C@@H](NC(=O)c1cc(C(F)(F)F)ccc1F)C(=O)N1CCC2(CC1)C(=O)N(C)C(=O)N2c1ccc(NC(=O)C2CC2)cc1` [Example 128, (R)—N-(1-(1-(4-(Cyclopropanecarboxamido)phenyl)-3-methyl-2,4-dioxo-1,3,8-triazaspiro[4.5]decan-8-yl)-3-methyl-1-oxobutan-2-yl)-2-fluoro-5-(trifluoromethyl)benzamide] reads 500 to 1000 nM; that for `Cc1cccc(C(=O)N[C@H](C(=O)N2CCC3(CC2)C(=O)N(C)CN3c2ccccc2)C2CCOCC2)c1` [Example 130, (S)-3-Methyl-N-(2-(3-methyl-4-oxo-1-phenyl-1,3,8-triazaspiro[4.5]decan-8-yl)-2-oxo-1-(tetrahydro-2H-pyran-4-yl)ethyl)benzamide], no less than 1000 nM; that for `Cc1cccc(C(=O)N[C@@H](C(=O)N2CCC3(CC2)C(=O)N(C)CN3c2ccccc2)C2CCCCC2)n1` [Example 131, (R)—N-(1-Cyclohexyl-2-(3-methyl-4-oxo-1-phenyl-1,3,8-triazaspiro[4.5]decan-8-yl)-2-oxoethyl)-6-methylpicolinamide trifluoroacetic Acid Salt], less than 500 nM.
For the molecule `CCc1ccc(F)c(C(=O)N[C@@H](C(=O)N2CCC3(CC2)C(=O)N(C)CN3c2ccccc2)[C@H](C)OC)c1` [Example 133, 5-Ethyl-2-fluoro-N-((2R,3S)-3-methoxy-1-(3-methyl-4-oxo-1-phenyl-1,3,8-triazaspiro[4.5]decane-8-yl)-1-oxobutan-2-yl)benzamide], the IC50 was less than 500 nM.
Consider `CO[C@@H](C)[C@@H](NC(=O)c1cccc(C)c1)C(=O)N1CCC2(CC1)C(=O)N(C)CN2c1ccccc1` [Example 134, N-((2R,3S)-3-Methoxy-1-(3-methyl-4-oxo-1-phenyl-1,3,8-triazaspiro[4.5]decan-8-yl)-1-oxobutan-2-yl)-3-methylbenzamide], for which the IC50 was less than 500 nM.
The result for `CCc1cccc(C(=O)N[C@@H](C(=O)N2CCC3(CC2)C(=O)N(C)CN3c2ccccc2)[C@H](C)OC)c1` [Example 135, 3-Ethyl-N-((2R,3S)-3-methoxy-1-(3-methyl-4-oxo-1-phenyl-1,3,8-triazaspiro[4.5]decan-8-yl)-1-oxobutan-2-yl)benzamide] reads less than 500 nM; that for `CCc1cc(F)cc(C(=O)N[C@@H](C(=O)N2CCC3(CC2)C(=O)N(C)CN3c2ccccc2)[C@H](C)OC)c1` [Example 136, 3-Ethyl-5-fluoro-N-((2R,3S)-3-methoxy-1-(3-methyl-4-oxo-1-phenyl-1,3,8-triazaspiro[4.5]decan-8-yl)-1-oxobutan-2-yl)benzamide], less than 500 nM.
Consider `Cc1cc(C(=O)N[C@@H](C(=O)N2CCC3(CC2)C(=O)N(C)CN3c2ccccc2)C(C)C)ccn1` [Example 137, (R)-2-Methyl-N-(3-methyl-1-(3-methyl-4-oxo-1-phenyl-1,3,8-triazaspiro[4.5]decan-8-yl)-1-oxobutan-2-yl)isonicotinamide], for which the IC50 was no less than 1000 nM.
The result for `CCc1cccc(C(=O)N[C@@H](C(=O)N2CCC3(CC2)C(=O)N(C)CN3c2ccccc2)C(C)C)c1` [Example 138, (R)-3-Ethyl-N-(3-methyl-1-(3-methyl-4-oxo-1-phenyl-1,3,8-triazaspiro[4.5]decan-8-yl)-1-oxobutan-2-yl)benzamide] reads less than 500 nM.
On to `Cc1cc(C(=O)N[C@@H](C(=O)N2CCC3(CC2)C(=O)N(C)CN3c2ccccc2)C(C)C)ccc1F` [Example 139, (R)-4-Fluoro-3-methyl-N-(3-methyl-1-(3-methyl-4-oxo-1-phenyl-1,3,8-triazaspiro[4.5]decan-8-yl)-1-oxobutan-2-yl)benzamide], for which the IC50 is less than 500 nM.
The result for `Cc1cc(F)cc(C(=O)N[C@@H](C(=O)N2CCC3(CC2)C(=O)N(C)CN3c2ccccc2)C(C)C)c1` [Example 140, (R)-3-Fluoro-5-methyl-N-(3-methyl-1-(3-methyl-4-oxo-1-phenyl-1,3,8-triazaspiro[4.5]decan-8-yl)-1-oxobutan-2-yl)benzamide] reads less than 500 nM.
With `Cc1ccc(F)c(C(=O)N[C@@H](C(=O)N2CCC3(CC2)C(=O)N(C)CN3c2ccccc2)C(C)C)c1` [Example 141, (R)-2-Fluoro-5-methyl-N-(3-methyl-1-(3-methyl-4-oxo-1-phenyl-1,3,8-triazaspiro[4.5]decan-8-yl)-1-oxobutan-2-yl)benzamide], the IC50 was less than 500 nM.
On to `CC(C)[C@@H](NC(=O)c1cccc(C2CC2)c1)C(=O)N1CCC2(CC1)C(=O)N(C)CN2c1ccccc1` [Example 142, (R)-3-Cyclopropyl-N-(3-methyl-1-(3-methyl-4-oxo-1-phenyl-1,3,8-triazaspiro[4.5]decan-8-yl)-1-oxobutan-2-yl)benzamide], for which the IC50 is less than 500 nM.
Next, `CCc1ccc(F)c(C(=O)N[C@@H](C(=O)N2CCC3(CC2)C(=O)N(C)CN3c2ccccc2)C(C)C)c1` [Example 144, (R)-5-Ethyl-2-fluoro-N-(3-methyl-1-(3-methyl-4-oxo-1-phenyl-1,3,8-triazaspiro[4.5]decan-8-yl)-1-oxobutan-2-yl)benzamide]: less than 500 nM; `Cc1cccc(C(=O)N[C@@H](C(=O)N2CCC3(CC2)C(=O)N(C)CN3c2ccc(C(N)=O)cc2)C(C)C)c1F` [Example 145, (R)—N-(1-(1-(4-Carbamoylphenyl)-3-methyl-4-oxo-1,3,8-triazaspiro[4.5]decan-8-yl)-3-methyl-1-oxobutan-2-yl)-2-fluoro-3-methylbenzamide]: 500 to 1000 nM.
The result for `Cc1cccc(C(=O)N[C@@H](C(=O)N2CCC3(CC2)C(=O)N(C)CN3c2cccc(C(N)=O)c2)C(C)C)c1F` [Example 146, (R)—N-(1-(1-(3-Carbamoylphenyl)-3-methyl-4-oxo-1,3,8-triazaspiro[4.5]decan-8-yl)-3-methyl-1-oxobutan-2-yl)-2-fluoro-3-methylbenzamide] reads no less than 1000 nM.
Next, `Cc1cccc(C(=O)N[C@@H](C(=O)N2CCC3(CC2)C(=O)N(C)CN3c2ccc(B(O)O)cc2)C(C)C)c1F` [Example 147, (R)-4-(8-(2-(2-Fluoro-3-methylbenzamido)-3-methylbutanoyl)-3-methyl-4-oxo-1,3,8-triazaspiro[4.5]decan-1-yl)phenylboronic Acid]: less than 500 nM; `Cc1cccc(C(=O)N[C@@H](C(=O)N2CCC3(CC2)C(=O)N(C)CN3c2cccc(B(O)O)c2)C(C)C)c1F` [Example 148, (R)-3-(8-(2-(2-Fluoro-3-methylbenzamido)-3-methylbutanoyl)-3-methyl-4-oxo-1,3,8-triazaspiro[4.5]decan-1-yl)phenylboronic Acid]: no less than 1000 nM.
In the case of `CC(C)[C@@H](NC(=O)c1cc(C(F)(F)F)ccc1F)C(=O)N1CCC2(CC1)C(=O)N(C)CN2c1ccc(C(=O)O)cc1` [Example 149, (R)-4-(8-(2-(2-Fluoro-5-(trifluoromethyl)benzamido)-3-methylbutanoyl)-3-methyl-4-oxo-1,3,8-triazaspiro[4.5]decan-1-yl)benzoic Acid], the IC50 was less than 500 nM.
The result for `Cc1cccc(C(=O)N[C@@H](C(=O)N2CCC3(CC2)C(=O)N(C)CN3c2ccc(C(=O)O)cc2)C(C)C)c1F` [Example 150, (R)-4-(8-(2-(2-Fluoro-3-methylbenzamido)-3-methylbutanoyl)-3-methyl-4-oxo-1,3,8-triazaspiro[4.5]decan-1-yl)benzoic Acid] reads less than 500 nM.
Next, `COc1cc(N2CN(C)C(=O)C23CCN(C(=O)[C@H](NC(=O)c2cc(C(F)(F)F)ccc2F)C(C)C)CC3)ccc1C(=O)O` [Example 151]: less than 500 nM; `CCc1ccc(F)c(C(=O)N[C@@H](C(=O)N2CCC3(CC2)C(=O)N(C)CN3c2ccc(C(=O)O)cc2)C(C)C)c1` [Example 152, (R)-4-(8-(2-(5-Ethyl-2-fluorobenzamido)-3-methylbutanoyl)-3-methyl-4-oxo-1,3,8-triazaspiro[4.5]decan-1-yl)benzoic Acid]: less than 500 nM.
